Measurements published in patent US9096560B2, “5-heterocyclylalkyl-3-hydroxy-2-phenylcyclopent-2-enones as herbicides” (Syngenta Limited, priority 2008, dated 2015).

Key:
Assay type in all cases: in vivo
Lolium perenne (LOLPE) [1] = test: Example B pre-emergence herbicidal test, LOLPE; conditions: Lolium perenne, 312 h, rate 250 g/ha, evaluated after 13 days, 100=total damage to plant, 0=no damage to plant
Summary of the method: (§1)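 After sowing in standard soil, pots spent a day in the glasshouse (24/16° C, 14 h photoperiod, 65% humidity) before spraying with compound in acetone/water 50:50 with 0.5% Tween 20. Watering followed twice a day, and plants were evaluated 13 days on, with 100 meaning complete damage.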

[2] = system: Alopecurus myosuroides (ALOMY); test: Example B pre-emergence herbicidal test, ALOMY; conditions: Alopecurus myosuroides, 312 h, rate 250 g/ha, evaluated after 13 days, 100=total damage to plant, 0=no damage to plant
Summary of the method: as §1

[3] = system: Echinochloa crus-galli (ECHCG); test: Example B pre-emergence herbicidal test, ECHCG; conditions: Echinochloa crus-galli, 312 h, rate 250 g/ha, evaluated after 13 days, 100=total damage to plant, 0=no damage to plant
Summary of the method: as §1

Avena fatua (AVEFA) [4] = test: Example B pre-emergence herbicidal test, AVEFA; conditions: Avena fatua, 312 h, rate 250 g/ha, evaluated after 13 days, 100=total damage to plant, 0=no damage to plant
Summary of the method: as §1

Lolium perenne (LOLPE) [5] = test: Example B post-emergence herbicidal test, LOLPE; conditions: Lolium perenne, 312 h, rate 250 g/ha, evaluated after 13 days, scale 0-100, read-out: Post-emergence activity LOLPE (100=total damage to plant; 0=no damage to plant)
Summary of the method: (§2)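 Foliar application to 8-day-old pot-grown seedlings in a glasshouse (24/16 °C, 14 h photoperiod, 65% humidity). Spray solution was derived from an acetone/water (50:50) formulation with 0.5% Tween 20. Injury was assessed 13 days later on a 0–100 scale.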

[6] = system: Alopecurus myosuroides (ALOMY); test: Example B post-emergence herbicidal test, ALOMY; conditions: Alopecurus myosuroides, 312 h, rate 250 g/ha, evaluated after 13 days, scale 0-100, read-out: Post-emergence activity ALOMY (100=total damage to plant; 0=no damage to plant)
Summary of the method: as §2

[7] = system: Echinochloa crus-galli (ECHCG); test: Example B post-emergence herbicidal test, ECHCG; conditions: Echinochloa crus-galli, 312 h, rate 250 g/ha, evaluated after 13 days, scale 0-100, read-out: Post-emergence activity ECHCG (100=total damage to plant; 0=no damage to plant)
Summary of the method: as §2

Avena fatua (AVEFA) [8] = test: Example B post-emergence herbicidal test, AVEFA; conditions: Avena fatua, 312 h, rate 250 g/ha, evaluated after 13 days, scale 0-100, read-out: Post-emergence activity AVEFA (100=total damage to plant; 0=no damage to plant)
Summary of the method: as §2

Compound	pest or weed control at 250 g/ha (Lolium perenne (LOLPE) [1])	pest or weed control at 250 g/ha [2]	pest or weed control at 250 g/ha [3]	pest or weed control at 250 g/ha (Avena fatua (AVEFA) [4])	pest or weed control at 250 g/ha (Lolium perenne (LOLPE) [5])	pest or weed control at 250 g/ha [6]	pest or weed control at 250 g/ha [7]	pest or weed control at 250 g/ha (Avena fatua (AVEFA) [8])
COCCOC(=O)N1CCC(CC2CC(=O)C(c3c(C)cc(C)cc3C)C2=O)CC1 (centres unmarked) [Compound T123]	60%	60%	60%	60%	70%	80%	60%	90%
CC(=O)N1CCC(CC2CC(=O)C(c3c(C)cc(C)cc3C)C2=O)C1 (centres unmarked) [Compound T35]	70%	30%	40%	10%	70%	70%	70%	60%
COCC(=O)N1CCC(CC2CC(=O)C(c3c(C)cc(C)cc3C)C2=O)CC1 (centres unmarked) [Compound T81]	80%	80%	60%	80%	90%	90%	80%	100%
Cc1cc(C)c(C2C(=O)CC(CC3CCN(C(=O)C(C)(C)CCl)C3)C2=O)c(C)c1 (centres unmarked) [Compound T145]	50%	60%	20%	30%	40%	60%	30%	50%
CCc1cc(C)cc(C)c1C1C(=O)CC(CCC2CCOCC2)C1=O (centres unmarked) [Compound T58]	100%	90%	100%	90%	90%	100%	100%	90%
C=COC(=O)N1CCC(CC2CC(=O)C(c3c(C)cc(C)cc3C)C2=O)CC1 (centres unmarked) [Compound T102]	70%	50%	50%	30%	80%	90%	40%	90%
CCSC(=O)OC1=C(c2c(C)cc(C)cc2C)C(=O)C(CC2CCOC2)C1 (centres unmarked) [Compound P30]	100%	100%	80%	90%	100%	100%	90%	100%
CCc1cc(C)cc(C)c1C1C(=O)CC(CC2CCOCC2)C1=O (centres unmarked) [Compound T50]	100%	100%	100%	100%	100%	100%	100%	100%
Cc1cc(C)c(C2C(=O)CC(CC3CCN(C(=O)C4CCCCC4)CC3)C2=O)c(C)c1 (centres unmarked) [Compound T89]	70%	50%	60%	10%	40%	30%	40%	20%
Cc1cc(Br)cc(C)c1C1C(=O)CC(CC2CCOCC2)C1=O (centres unmarked) [Compound T138]	90%	80%	90%	70%	90%	90%	70%	90%
